From patent publication US10358436B2, “Kinase inhibitors and method of treating cancer” (University Health Network, priority 2010, dated 2019)
Where a name gives a salt, the structure may show the parent alone.

biological target: Aurora A (Homo sapiens (Human), UniProt O14965); assay: Aurora A inhibition assay (Z-Lyte); type: biochemical
Sequence (O14965 whole entry): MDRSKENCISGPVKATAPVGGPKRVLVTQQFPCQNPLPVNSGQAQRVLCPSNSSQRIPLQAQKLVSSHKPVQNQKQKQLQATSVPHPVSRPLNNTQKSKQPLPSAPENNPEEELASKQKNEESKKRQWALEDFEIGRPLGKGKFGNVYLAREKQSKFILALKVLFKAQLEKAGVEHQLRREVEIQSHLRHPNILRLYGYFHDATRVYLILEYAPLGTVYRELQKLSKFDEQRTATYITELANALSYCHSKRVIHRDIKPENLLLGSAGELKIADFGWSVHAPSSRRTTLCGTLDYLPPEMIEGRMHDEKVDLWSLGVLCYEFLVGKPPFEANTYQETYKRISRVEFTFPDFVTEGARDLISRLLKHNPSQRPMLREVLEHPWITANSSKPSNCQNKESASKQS

**Q.** `O=C1Nc2ccccc2[C@]12C[C@H]2c1ccc2c(/C=C/c3ccccn3)n[nH]c2c1` (relative stereo) [Example A53, (1R*,2S*)-2-(3-((E)-2-(pyridin-2-yl)vinyl)-1H-indazol-6-yl)spiro[cyclopropane-1,3′-indolin]-2′-one] was tested. Which inhibition at 1 µM did it give?
**A.** > 50%

**Q.** For `COc1cc2c(cc1OC)[C@]1(C[C@H]1c1ccc3c(/C=C/c4ccc(CN(C)C)cc4)n[nH]c3c1)C(=O)N2` (relative stereo) [Example A168, (1R*,2S*)-(E)-2-(3-(4-((dimethylamino)methyl)styryl)-1H-indazol-6-yl)-5′,6′-dimethoxyspiro[cyclopropane-1,3′-indolin]-2′-one 2,2,2-trifluoroacetate], which inhibition at 1 µM is on record?
**A.** < 50%

**Q.** How did the inhibition at 1 µM turn out when `COc1ccc2c(c1)[C@]1(C[C@H]1c1ccc3c(/C=C/c4ccc(N5CCN(C)CC5)cc4)n[nH]c3c1)C(=O)N2` [Example A175, (1R,2S)-(E)-5′-methoxy-2-(3-(4-(4-methylpiperazin-1-yl)styryl)-1H-indazol-6-yl)spiro[cyclopropane-1,3′-indolin]-2′-one 2,2,2-trifluoroacetate] was run?
**A.** < 50%

**Q.** For `COc1ccc2c(c1)[C@]1(C[C@H]1c1ccc3c(/C=C/c4ccc(CN5CCOCC5)cc4)n[nH]c3c1)C(=O)N2C` [Example A102, (1R,2S)-(E)-5′-methoxy-1′-methyl-2-(3-(4-(morpholinomethyl)styryl)-1H-indazol-6-yl)spiro[cyclopropane-1,3′-indolin]-2′-one hydrochloride], which inhibition at 1 µM is on record?
**A.** > 50%

**Q.** Which inhibition at 1 µM does the source give for `O=C1Nc2ccccc2[C@]12C[C@H]2c1ccc2c(/C=C/c3ccc(CN4CCOCC4)c(F)c3)n[nH]c2c1` [Example A200, (1R,2S)-(E)-2-(3-(3-fluoro-4-(morpholinomethyl)styryl)-1H-indazol-6-yl)spiro[cyclopropane-1,3′-indolin]-2′-one 2,2,2-trifluoroacetate] here?
**A.** > 50%

**Q.** Which inhibition at 1 µM does the source give for `COc1ccc2c(c1)[C@]1(C[C@H]1c1ccc3c(/C=C/c4cc(F)c(CN5CCOCC5)c(F)c4)n[nH]c3c1)C(=O)N2` (relative stereo) [Example A217, (1R*,2S*)-(E)-2-(3-(3,5-difluoro-4-(morpholinomethyl)styryl-1H-indazol-6-yl)-5′-methoxyspiro[cyclopropane-1,3′-indolin]-2′-one 2,2,2-trifluoroacetate] here?
**A.** > 50%

**Q.** Which inhibition at 1 µM does the source give for `COc1ccc2c(c1)[C@]1(C[C@H]1c1ccc3c(/C=C/c4ccc(N5CCNCC5)cc4)n[nH]c3c1)C(=O)N2` (relative stereo) [Example A182, (1R*,2S*)-5′-methoxy-2-(3-(4-(piperazin-1-yl)styryl)-1H-indazol-6-yl)spiro[cyclopropane-1,3′-indolin]-2′-one 2,2,2-trifluoroacetate] here?
**A.** > 50%

**Q.** How did the inhibition at 1 µM turn out when `COc1ccc2c(c1)[C@]1(C[C@H]1c1ccc3c(-c4cccc(N5CCNCC5)c4)n[nH]c3c1)C(=O)N2` (relative stereo) [Example A47, (1R*,2S*)-5′-methoxy-2-(3-(3-(piperazin-1-yl)phenyl)-1H-indazol-6-yl)spiro[cyclopropane-1,3′-indolin]-2′-one 2,2,2-trifluoroacetate] was run?
**A.** < 50%

**Q.** For `COc1ccc2c(c1)[C@]1(C[C@H]1c1ccc3c(/C=C/c4cc(F)c(CN5CCOCC5)c(F)c4)n[nH]c3c1)C(=O)N2` [Example A218, (1R,2S)-(E)-2-(3-(3,5-difluoro-4-(morpholinomethyl)styryl)-1H-indazol-6-yl)-5′-methoxyspiro[cyclopropane-1,3′-indolin]-2′-one 2,2,2-trifluoroacetate], which inhibition at 1 µM is on record?
**A.** > 50%

**Q.** For `COc1ccc2c(c1)[C@]1(C[C@H]1c1ccc3c(-c4ccc5c(c4)CNCC5)n[nH]c3c1)C(=O)N2` [Example A71, (1R,2S)-5′-methoxy-2-(3-(1,2,3,4-tetrahydroisoquinolin-7-yl)-1H-indazol-6-yl)spiro[cyclopropane-1,3′-indolin]-2′-one 2,2,2-trifluoroacetate salt], which inhibition at 1 µM is on record?
**A.** < 50%

**Q.** How did the inhibition at 1 µM turn out when `CN1CCN(C(=O)c2ccc(-c3n[nH]c4cc([C@@H]5C[C@@]56C(=O)Nc5ccccc56)ccc34)cc2)CC1` (relative stereo) [Example A156, (1R*,2S*)-2-(3-(4-(4-methylpiperazine-1-carbonyl)phenyl)-1H-indazol-6-yl)spiro[cyclopropane-1,3′-indolin]-2′-one 2,2,2-trifluoroacetate] was run?
**A.** < 50%

**Q.** `O=C1Nc2ccccc2[C@]12C[C@H]2c1ccc2c(/C=C/c3ccc4c(c3)CNCCO4)n[nH]c2c1` [Example A113, (1R,2S)-2-(3-((E)-2-(2,3,4,5-tetrahydrobenzo[f][1,4]oxazepin-7-yl)vinyl)-1H-indazol-6-yl)spiro[cyclopropane-1,3′-indolin]-2′-one 2,2,2-trifluoroacetate] was tested. Which inhibition at 1 µM did it give?
**A.** > 50%

**Q.** Which inhibition at 1 µM does the source give for `C[C@@H]1CCC[C@H](C)N1Cc1ccc(/C=C/c2n[nH]c3cc([C@@H]4C[C@@]45C(=O)Nc4ccccc45)ccc23)cc1` [Example A201, (1R,2S)-(E)-2-(3-(4-((cis-2,6-dimethylpiperidin-1-yl)methyl)styryl)-1H-indazol-6-yl)spiro[cyclopropane-1,3′-indolin]-2′-one 2,2,2-trifluoroacetate] here?
**A.** > 50%

**Q.** How did the inhibition at 1 µM turn out when `O=C1Nc2ccccc2[C@]12C[C@H]2c1ccc2c(/C=C/c3ccc(N4CCNCC4)cc3)n[nH]c2c1` [Example A92, (1R,2S)-(E)-2-(3-(4-(piperazin-1-yl)styryl)-1H-indazol-6-yl)spiro[cyclopropane-1,3′-indolin]-2′-one bis(2,2,2-trifluoroacetate)] was run?
**A.** > 50%

**Q.** Which inhibition at 1 µM does the source give for `COc1ccc2c(c1)[C@]1(C[C@H]1c1ccc3c(/C=C/c4ccc(CN5CCCC5)cc4)n[nH]c3c1)C(=O)N2` [Example A83, (1R,2S)-(E)-5′-methoxy-2-(3-(4-(pyrrolidin-1-ylmethyl)styryl)-1H-indazol-6-yl)spiro[cyclopropane-1,3′-indolin]-2′-one 2,2,2-trifluoroacetate] here?
**A.** > 50%

**Q.** How did the inhibition at 1 µM turn out when `COc1ccc2c(c1)[C@]1(C[C@H]1c1ccc3c(-c4ccc(N5C[C@@H](C)N[C@@H](C)C5)cc4)n[nH]c3c1)C(=O)N2` [Example A126, (1R,2S)-2-(3-(4-(cis-3,5-dimethylpiperazin-1-yl)phenyl)-1H-indazol-6-yl)-5′-methoxyspiro[cyclopropane-1,3′-indolin]-2′-one 2,2,2-trifluoroacetate] was run?
**A.** < 50%

**Q.** For `COc1ccc2c(c1)[C@]1(C[C@H]1c1ccc3c(/C=C/c4ccc5c(c4)CN(C)CC5)n[nH]c3c1)C(=O)N2` [Example A64, (1R,2S)-5′-methoxy-2-(3-((E)-2-(2-methyl-1,2,3,4-tetrahydroisoquinolin-7-yl)vinyl)-1H-indazol-6-yl)spiro[cyclopropane-1,3′-indolin]-2′-one 2,2,2-trifluoroacetate salt], which inhibition at 1 µM is on record?
**A.** > 50%

**Q.** How did the inhibition at 1 µM turn out when `CN(C)Cc1ccc(/C=C/c2n[nH]c3cc([C@@H]4C[C@@]45C(=O)N(C)c4ccccc45)ccc23)cc1` [Example A109, (1R,2S)-(E)-2-(3-(4-((dimethylamino)methyl)styryl)-1H-indazol-6-yl)-1′-methylspiro[cyclopropane-1,3′-indolin]-2′-one 2,2,2-trifluoroacetate] was run?
**A.** > 50%

**Q.** How did the inhibition at 1 µM turn out when `CCc1ccc2c(c1)[C@]1(C[C@H]1c1ccc3c(/C=C/c4ccc(CN(C)C)cc4)n[nH]c3c1)C(=O)N2` (relative stereo) [Example A167, (1R*,2S*)-(E)-2-(3-(4-((dimethylamino)methyl)styryl)-1H-indazol-6-yl)-5′-ethylspiro[cyclopropane-1,3′-indolin]-2′-one 2,2,2-trifluoroacetate] was run?
**A.** > 50%
